14 compounds from patent publication US8476265B2, “Compounds-801” (AstraZeneca AB, priority 2010, dated 2013) can be followed below.

SMILES strings stand for the structures.

One experiment addresses T1, Adrenergic β2 (Homo sapiens, UniProt P07550).
T1 construct: Adherent H292 cells are removed from tissue culture flasks by treatment with Accutase™ cell detachment solution; endogenous in cells; host or cells: H292 cells
The experiment in a line: Adrenergic β2 mediated cAMP production in H292 cells (AlphaScreen), concentration response. It counts as cell-based. The settings on record: for EC50: 60 min, 300 μM rolipram, read-out: β2 pEC50 (converted); for β2 Intrinsic Activity: fraction relative to the maximum activity determined for formoterol. In a few lines:
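H292 cells seeded overnight, pretreated 10 min with rolipram (300 μM final), then exposed to compounds 60 min at room temperature in HBSS/10 mM HEPES pH 7.4/5 mM glucose, 1% DMSO. Lysate cAMP quantified by AlphaScreen against a standard curve; four-parameter fit gives pEC50 and intrinsic activity relative to formoterol maximum.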

Experiment [1] has as its target T2, human muscarinic acetylcholine M3 receptor (Homo sapiens, UniProt P20309).
T2 construct: expressed in transfected cells; host or cells: CHO-K1 (Chinese Hamster Ovary) cell membranes
Description: Muscarinic 3 receptor binding assay ([3H]NMS competition, SPA), pIC50. The conditions noted are these: [3H]NMS 0.1 nM, CHO-K1 cell membranes expressing human M3 receptor. Summed up: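 Competition of [3H]NMS (0.1 nM, quarter Kd) binding to CHO-K1 membranes expressing human M3, SPA format, in 20 mM HEPES pH 7.4, 5 mM MgCl2, 0.1% BSA, 1% DMSO. Incubated 16 h at room temperature; non-specific binding with 1 μM atropine; pIC50 from specific binding.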

T2 sequence (P20309 whole entry): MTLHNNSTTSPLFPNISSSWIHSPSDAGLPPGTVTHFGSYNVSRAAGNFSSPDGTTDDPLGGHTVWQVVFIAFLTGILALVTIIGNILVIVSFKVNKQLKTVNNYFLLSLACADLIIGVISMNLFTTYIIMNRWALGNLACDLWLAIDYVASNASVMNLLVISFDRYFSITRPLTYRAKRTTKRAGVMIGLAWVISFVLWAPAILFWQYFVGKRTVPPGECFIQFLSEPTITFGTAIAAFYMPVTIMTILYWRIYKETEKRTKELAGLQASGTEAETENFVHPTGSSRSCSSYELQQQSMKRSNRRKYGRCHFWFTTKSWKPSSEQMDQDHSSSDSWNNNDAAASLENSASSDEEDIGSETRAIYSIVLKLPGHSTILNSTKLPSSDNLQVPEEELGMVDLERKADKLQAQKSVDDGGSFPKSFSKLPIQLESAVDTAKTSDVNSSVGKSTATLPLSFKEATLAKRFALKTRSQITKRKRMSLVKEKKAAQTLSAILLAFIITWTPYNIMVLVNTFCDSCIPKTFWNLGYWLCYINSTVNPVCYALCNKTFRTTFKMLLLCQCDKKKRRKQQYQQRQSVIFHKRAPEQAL
T1 sequence (P07550 whole entry): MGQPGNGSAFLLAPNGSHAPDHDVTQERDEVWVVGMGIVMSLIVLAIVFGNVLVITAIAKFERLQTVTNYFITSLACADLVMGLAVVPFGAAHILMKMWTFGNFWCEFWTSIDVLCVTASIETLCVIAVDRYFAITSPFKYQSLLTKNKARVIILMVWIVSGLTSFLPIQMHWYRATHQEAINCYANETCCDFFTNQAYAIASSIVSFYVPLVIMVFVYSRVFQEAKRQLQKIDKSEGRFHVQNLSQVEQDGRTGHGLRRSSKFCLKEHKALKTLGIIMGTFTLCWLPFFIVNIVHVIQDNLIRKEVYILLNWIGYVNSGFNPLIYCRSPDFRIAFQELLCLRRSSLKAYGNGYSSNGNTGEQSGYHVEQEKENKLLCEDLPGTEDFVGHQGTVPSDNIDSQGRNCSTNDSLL

`CC(C)c1nc(C(=O)N2CCOC3(CCN(CCc4cc(CCOCCC(=O)N(CCNCCc5ccc(O)c6c5OCC(=O)N6)C5CCCCC5)cs4)CC3)C2)cs1` [Example 63, N-Cyclohexyl-N-(2-(2-(5-hydroxy-3-oxo-3,4-dihydro-2H-benzo[b][1,4]oxazin-8-yl)ethylamino)ethyl)-3-(2-(5-(2-(4-(2-isopropylthiazole-4-carbonyl)-1-oxa-4,9-diazaspiro[5.5]undecan-9-yl)ethyl)thiophen-3-yl)ethoxy)propanamide ditrifluoroacetate]: on Adrenergic β2, the EC50 was 0.158 µM and the “β2 Intrinsic Activity” value is reported as 1.1. For the same compound, the IC50 in experiment [1] was 0.002 µM.
As for `Cc1c(CCOCCC(=O)N(CCNCCc2ccc(O)c3c2OCC(=O)N3)C2CCCC2)cccc1CN1CCC2(CC1)CN(C(=O)c1csc(C(C)C)n1)CCO2` [Example 64, N-Cyclopentyl-N-(2-(2-(5-hydroxy-3-oxo-3,4-dihydro-2H-benzo[b][1,4]oxazin-8-yl)ethylamino)ethyl)-3-(3-((4-(2-isopropylthiazole-4-carbonyl)-1-oxa-4,9-diazaspiro[5.5]undecan-9-yl)methyl)-2-methylphenethoxy)propanamide ditrifluoroacetate], on Adrenergic β2, the EC50 was 0.02 µM and the “β2 Intrinsic Activity” value was 1.0. Moreover, the IC50 in experiment [1] is 0.00251 µM.
The corresponding values for `CCCCN(CCNCCc1ccc(O)c2c1OCC(=O)N2)C(=O)CCOCCc1cc(C)cc(CN2CCC3(CC2)CN(C(=O)c2csc(C(C)C)n2)CCO3)c1` [Example 65, N-Butyl-N-(2-(2-(5-hydroxy-3-oxo-3,4-dihydro-2H-benzo[b][1,4]oxazin-8-yl)ethylamino)ethyl)-3-(3-((4-(2-isopropylthiazole-4-carbonyl)-1-oxa-4,9-diazaspiro[5.5]undecan-9-yl)methyl)-5-methylphenethoxy)propanamide ditrifluoroacetate] are 0.0631 µM, 1.0 and 0.000501 µM.
The corresponding values for `CCN(CCNCCc1ccc(O)c2[nH]c(=O)sc12)C(=O)CCOCCCc1cccc(CN2CCC3(CC2)CN(C(=O)c2csc(C(C)C)n2)CCO3)c1F` [Example 66, N-Ethyl-3-(3-(2-fluoro-3-((4-(2-isopropylthiazole-4-carbonyl)-1-oxa-4,9-diazaspiro[5.5]undecan-9-yl)methyl)phenyl)propoxy)-N-(2-(2-(4-hydroxy-2-oxo-2,3-dihydrobenzo[d]thiazol-7-yl)ethylamino)ethyl)propanamide ditrifluoroacetate] are 0.251 µM, 0.5 and 0.000501 µM.
As for `CC(C)c1nc(C(=O)N2CCOC3(CCN(Cc4cccc(COCCOCCC(=O)N(CCNCCc5ccc(O)c6c5OCC(=O)N6)C5CCCCC5)c4)CC3)C2)cs1` [Example 67, N-Cyclohexyl-N-(2-(2-(5-hydroxy-3-oxo-3,4-dihydro-2H-benzo[b][1,4]oxazin-8-yl)ethylamino)ethyl)-3-(2-(3-((4-(2-isopropylthiazole-4-carbonyl)-1-oxa-4,9-diazaspiro[5.5]undecan-9-yl)methyl)benzyloxy)ethoxy)propanamide ditrifluoroacetate], at Adrenergic β2, the EC50 is 0.0316 µM and the “β2 Intrinsic Activity” value is reported as 0.8. In addition, the IC50 in experiment [1] was 0.000251 µM.
The corresponding values for `CCN(CCNCCc1ccc(O)c2[nH]c(=O)sc12)C(=O)CCOCCc1cccc(CN2CCC3(CC2)CN(C(=O)c2csc(C(C)C)n2)CCO3)c1OC` [Example 68, N-Ethyl-N-(2-(2-(4-hydroxy-2-oxo-2,3-dihydrobenzo[d]thiazol-7-yl)ethylamino)ethyl)-3-(3-((4-(2-isopropylthiazole-4-carbonyl)-1-oxa-4,9-diazaspiro[5.5]undecan-9-yl)methyl)-2-methoxyphenethoxy)propanamide ditrifluoroacetate] are 0.01 µM, 0.6 and 0.01 µM.
Regarding `CCN(CCNCCc1ccc(O)c2c1OCC(=O)N2)C(=O)CCOCCc1cccc(CN2CCC3(CC2)CN(C(=O)c2csc(CC(C)C)n2)CCO3)c1F` [Example 69, N-Ethyl-3-(2-fluoro-3-((4-(2-isobutylthiazole-4-carbonyl)-1-oxa-4,9-diazaspiro[5.5]undecan-9-yl)methyl)phenethoxy)-N-(2-(2-(5-hydroxy-3-oxo-3,4-dihydro-2H-benzo[b][1,4]oxazin-8-yl)ethylamino)ethyl)propanamide ditrifluoroacetate], at Adrenergic β2, the EC50 is 0.0316 µM and the “β2 Intrinsic Activity” value is reported as 0.8. In experiment [1], this compound showed an IC50 of 0.000251 µM.
In the same order, the values of `COCCN(CCNCCc1ccc(O)c2c1OCC(=O)N2)C(=O)CCOCCc1cccc(CN2CCC3(CC2)CN(C(=O)c2csc(C(C)C)n2)CCO3)c1Cl` [Example 70, 3-(2-Chloro-3-((4-(2-isopropylthiazole-4-carbonyl)-1-oxa-4,9-diazaspiro[5.5]undecan-9-yl)methyl)phenethoxy)-N-(2-(2-(5-hydroxy-3-oxo-3,4-dihydro-2H-benzo[b][1,4]oxazin-8-yl)ethylamino)ethyl)-N-(2-methoxyethyl)propanamide ditrifluoroacetate] are 0.0501 µM, 1.0 and 0.000126 µM.
Turning to `COCCCN(CCNCCc1ccc(O)c2c1OCC(=O)N2)C(=O)CCOCCc1cccc(CN2CCC3(CC2)CN(C(=O)c2csc(C(C)C)n2)CCO3)c1Cl` [Example 71, 3-(2-Chloro-3-((4-(2-isopropylthiazole-4-carbonyl)-1-oxa-4,9-diazaspiro[5.5]undecan-9-yl)methyl)phenethoxy)-N-(2-(2-(5-hydroxy-3-oxo-3,4-dihydro-2H-benzo[b][1,4]oxazin-8-yl)ethylamino)ethyl)-N-(3-methoxypropyl)propanamide ditrifluoroacetate], on Adrenergic β2, the EC50 is 0.0501 µM and the “β2 Intrinsic Activity” value is on record as 1.0. Moreover, in experiment [1], the IC50 is 0.000251 µM.
The corresponding values for `CC(C)c1nc(C(=O)N2CCOC3(CCN(Cc4cccc(CCOCCC(=O)N(CCF)CCNCCc5ccc(O)c6c5OCC(=O)N6)c4F)CC3)C2)cs1` [Example 72, 3-(2-Fluoro-3-((4-(2-isopropylthiazole-4-carbonyl)-1-oxa-4,9-diazaspiro[5.5]undecan-9-yl)methyl)phenethoxy)-N-(2-fluoroethyl)-N-(2-(2-(5-hydroxy-3-oxo-3,4-dihydro-2H-benzo[b][1,4]oxazin-8-yl)ethylamino)ethyl)propanamide ditrifluoroacetate] are 0.0316 µM, 0.9 and 0.000126 µM.
Regarding `CC(C)c1nc(C(=O)N2CCOC3(CCN(Cc4cccc(CCOCCC(=O)N(CCNCCc5ccc(O)c6c5OCC(=O)N6)CC(F)F)c4F)CC3)C2)cs1` [Example 73, N-(2,2-Difluoroethyl)-3-(2-fluoro-3-((4-(2-isopropylthiazole-4-carbonyl)-1-oxa-4,9-diazaspiro[5.5]undecan-9-yl)methyl)phenethoxy)-N-(2-(2-(5-hydroxy-3-oxo-3,4-dihydro-2H-benzo[b][1,4]oxazin-8-yl)ethylamino)ethyl)propanamide ditrifluoroacetate], on Adrenergic β2, the EC50 was 0.0251 µM and the “β2 Intrinsic Activity” value was 1.1. Also, in experiment [1], the IC50 is 0.0001 µM.
On to `CCN(CCNCCc1ccc(O)c2c1OCC(=O)N2)C(=O)CCOCCc1cccc(CN2CCC3(CC2)CN(C(=O)c2csc(C(C)C)c2)CCO3)c1F` [Example 74, N-Ethyl-3-(2-fluoro-3-((4-(5-isopropylthiophene-3-carbonyl)-1-oxa-4,9-diazaspiro[5.5]undecan-9-yl)methyl)phenethoxy)-N-(2-(2-(5-hydroxy-3-oxo-3,4-dihydro-2H-benzo[b][1,4]oxazin-8-yl)ethylamino)ethyl)propanamide ditrifluoroacetate], for which, at Adrenergic β2, the EC50 was 0.1 µM and the “β2 Intrinsic Activity” value stood at 0.7. In experiment [1], this compound showed an IC50 of 0.0002 µM.
With `CCc1nc(C(=O)N2CCOC3(CCN(CCc4ccc(CCOCCC(=O)N(CCCCCO)CCNCCc5ccc(O)c6[nH]c(=O)sc56)cc4)CC3)C2)cs1` [Example 75, 3-(4-(2-(4-(2-Ethylthiazole-4-carbonyl)-1-oxa-4,9-diazaspiro[5.5]undecan-9-yl)ethyl)phenethoxy)-N-(2-(2-(4-hydroxy-2-oxo-2,3-dihydrobenzo[d]thiazol-7-yl)ethylamino)ethyl)-N-(5-hydroxypentyl)propanamide diformate], at Adrenergic β2, the EC50 is 0.0501 µM and the “β2 Intrinsic Activity” value is recorded as 0.9. The same compound showed an IC50 in experiment [1] of 0.000501 µM.
The corresponding values for `CCc1nc(C(=O)N2CCOC3(CCN(CCc4ccc(CCOCCC(=O)N(CCCCCCO)CCNCCc5ccc(O)c6[nH]c(=O)sc56)cc4)CC3)C2)cs1` [Example 76, 3-(4-(2-(4-(2-Ethylthiazole-4-carbonyl)-1-oxa-4,9-diazaspiro[5.5]undecan-9-yl)ethyl)phenethoxy)-N-(2-(2-(4-hydroxy-2-oxo-2,3-dihydrobenzo[d]thiazol-7-yl)ethylamino)ethyl)-N-(6-hydroxyhexyl)propanamide diformate] are 0.0501 µM, 1.0 and 0.000631 µM.
